Measurements: patent US6184254A, “Methods of identifying modulators of perivascular sensory nerve Ca2+ receptors” (priority 1998, dated 2001)
“Also recorded” adds a separate entry of the source.

Experiments:
blood pressure [1] = settings: SHR; cited from earlier work
aorta = settings: high extracellular Ca2+; cited from earlier work
[2] = test system: mesenteric resistance arteries; assay: Isometric force/active stress of Ca2+-depleted mesenteric resistance arteries; set-up: species or system Wistar rat
Protocol: In the course of studies designed to examine the hypothesis that the Ca^2+ force relationship of resistance arteries is altered in genetically hypertensive rats, it was discovered that physiologic concentrations of extracellular Ca^2+ affected the repeated contraction elicited by norepinephrine in Ca^2+ -free medium.
(§1) Mesenteric resistance arteries were isolated from Wistar rats; and intracellular Ca^2+ and isometric force were measured using a fura-based method and w ire myography (Bian, et aL, 1995b). Vessels were depleted of releasable Ca^2+ by repeated contraction with norepinephrine; and extracellular Ca^2+ was then cumulatively added back from 0.025-2.5 mmol/L in the presence of a n agonist. […] It was concluded that extracellular Ca^2+ limits force generation by depressing myofilament Ca^2+ sensitivity and decreasing intracellular Ca^2+ secondary to activation of a Ca^2+ -sensitive K^+ channel.

[3] = test system: mesenteric resistance arteries; settings: cited from earlier work
[4] = test system: renal artery segment pre-contracted with norepinephrine; assay: Superfusion bioassay with renal artery segment; set-up: species or system rat
Source text: The renal artery used as the bioassay segment was isolated and mounted between a fixed support and a force transducer and the lack of response to addition of Ca^2+ was verified (FIG. 9A). The bioassay segment was then superfused with PSS that was allowed to drip across a mesenteric arcade attached to PE-10 tubing; the cut ends of the arcade were tied with suture material to prevent egress of endothelium-derived factors. […] To further examine the possibility that a diffusible substance was released from the mesenteric arcade in response to 5 mM Ca^2+, the superfusate was collected and stored on ice for approximately 45 minutes. The bioassay segment was then returned to the organ chamber, recontracted with norepinephrine and the response to Ca^2+ and to the collected superfusate were assessed.

[5] = test system: mesenteric resistance arteries; assay: Ca2+-induced relaxation of isolated mesenteric resistance arteries (wire myograph); set-up: species or system rat
Source text: (§2) Branch I and II mesenteric resistance arteries, internal diameter […], are isolated from the mesenteric arcade of male Wistar rats and placed in ice cold physiologic salt solution (PSS) of the following composition in mM: NaCl, 130-140; KCl, 4.7; MgSO4.7H2 O, 1.17; NaHCO3, 5-15; KH2 PO4, 1.15 and Na2 HPO4, 1.10, CaCl2, 1.0; HEPES, 50; and glucose, 5, with a pH of 7.4 when gassed with 95% air, 5% CO2.
After cleaning of fat and connective tissue, the arterial segments are denuded of endothelium by rubbing a human hair in and out of the lumen. The vessel segments are then mounted between a force transducer and translation stage of a wire myograph using tungsten wire and the PSS is warmed to 37° C. and gassed with 95% air, 5% CO2 to provide a pH of 7.4. The vessel segments are then stretched to a length which is equivalent to an internal diameter of […] and allowed to equilibrate for 30 minutes. […]
Mesenteric resistance artery segments are isolated from sham treated and denervated rats and prepared for measurement of isometric force generation using the wire myograph system. […] For each vessel, the maximal level of relaxation is recorded and used for comparisons. At the end of the protocol, the ability of the vessel to relax in response to addition of sodium nitroprusside (SNP) is assessed to determine the ability to relax in response to a non-neural stimulus. […]

cremaster arterioles = settings: Ca2+ 0 to 5.1 mM; cited from earlier work
[6] = test system: intracellular Ca^2+ of mesenteric resistance arteries; assay: Intracellular Ca2+ (fura-based) of mesenteric resistance arteries; set-up: species or system Wistar rat; settings: 1.6 and 2.5 mmol/L Ca2+
Protocol: as §1

blood pressure [7] = settings: cited from earlier work
[8] = test system: mesenteric resistance arteries of SHR and WKY; assay: Response to norepinephrine of SHR and WKY mesenteric resistance arteries at different extracellular Ca2+; set-up: species or system rat (SHR and WKY); settings: 1.5 and 2.5 vs 1.25 mmol/L Ca2+, both strains
Protocol: In an initial series of experiments the isometric force response of mesenteric resistance arteries of SHR and WKY was assessed to cumulative addition of norepinephrine in the presence of 1.25, 1.5 and 2.5 mmol/L extracellular Ca^2+ (Li, J., et al., 1993).

rat aorta = settings: cited from earlier work
rat tail arteries = settings: cited from earlier work
mammalian arteries = settings: slightly supraphysiologic concentrations; cited from earlier work
CaR = settings: cited from earlier work
[9] = test system: norepinephrine precontracted mesenteric resistance arteries (perivascular CaR); assay: Vasorelaxation of norepinephrine precontracted mesenteric resistance arteries; set-up: species or system rat
Source text: as §2
After cleaning of fat and connective tissue, the arterial segments are denuded of endothelium by rubbing a human hair in and out of the lumen. The vessel segments are then mounted between a force transducer and translation stage of a wire myograph using tungsten wire and the PSS is warmed to 37° C. and gassed with 95% air, 5% CO2 to provide a pH of 7.4. The vessel segments are then stretched to a length which is equivalent to an internal diameter of […] and allowed to equilibrate for 30 minutes. The vessels are then exposed to […] norepinephrine for three 5 minute periods to induce reproducible contractile responses. […] The vessel is then washed and allow to relax to baseline.
To determine whether the test compound is a vasodilator, the vessel is again precontracted by the addition of […] norepinephrine, and after the force response reaches a steady state, the test compound is cumulatively added and the effect on force generation is determined. […] Ca^2+ receptor agonists that are found to be endothelium-independent vasodilators and whose dilator activity is blocked by quinacrine and sensory denervation are moved onto the tertiary in vivo blood pressure screen.
(§3) Mesenteric resistance arteries were precontracted with either 100 mM K^+ (in the presence of 1 μM phentolamine) or 5 μM norepinephrine and response to cumulative addition of NPS R831 (10 nM to 50 μM) determined.

[10] = test system: voltage sensitive Ca^2+ channel; settings: "in view of statements"; cited from earlier work
mean arterial pressure = assay: Mean arterial pressure of conscious SHR and WKY rats after bolus administration; assay type: in vivo, rat (SHR and WKY)
Source text: FIG. 12. Effect of bolus administration of 3 μmol/kg NPS R467 on mean arterial pressure (carotid artery catheter) of conscious SHR rats.
FIG. 13. Effect of bolus administration of 1 μmol/kg NPS R831 on mean arterial pressure (carotid artery catheter) of conscious SHR and WKY.
The initial studies assessed the effect of bolus administration of NPS R467 on mean arterial pressure of conscious rats of both strains.
As noted, one result of the studies in Example 1 was the identification of NPS R831 as a candidate compound for assessment of blood pressure lowering effects. A study was performed in which the effect of a bolus injection of NPS R831 on blood pressure of a single SHR and a single WKY rat were measured.

Ca^2+ channels = target: T1, Ca^2+ channels (Rattus norvegicus, UniProt P22002); assay: Relaxation of mesenteric arteries precontracted with 100 mM K+ (Ca2+ channel blocking activity)
T1 construct: voltage sensitive Ca^2+ channels present on smooth muscle; from tissue; host or cells: isolated mesenteric resistance arteries (rat)
Source text: Prior studies have shown that the parathyroid CaR agonists of the NPS R467 class block voltage sensitive Ca^2+ channel at mid-micromolar concentrations. […] The rationale was based on the facts that (a) K^+ -induced contraction is the result of influx of Ca^2+ into the cell through voltage gated Ca^2+ channels, and (b) Ca^2+ -induced relaxation is not observed during K^+ depolarization. Thus, CaR agonist mediated relaxation observed during K^+ induced contraction would reflect Ca^2+ channel blocking activity while […] relaxation observed during norepinephrine-induced contraction (which results from both Ca^2+ release and Ca^2+ entry) would be a mixture of Ca^2+ receptor stimulated relaxation and Ca^2+ channel activity.
as §3, with “determined. […] To determine that the high sensitivity component observed during norepinephrine-induced contraction is mediated by the perivascular CaR two additional studies are conducted.” for “determined.”

[11] = test system: Ca^2+-induced relaxation of mesenteric resistance arteries; assay: Inhibition of Ca2+-induced relaxation of mesenteric resistance arteries by antagonists or denervation; set-up: species or system rat; settings: prior results, K / KCa channel blockade
[12] = bolus injection, single SHR and single WKY

T1 sequence (P22002 whole entry): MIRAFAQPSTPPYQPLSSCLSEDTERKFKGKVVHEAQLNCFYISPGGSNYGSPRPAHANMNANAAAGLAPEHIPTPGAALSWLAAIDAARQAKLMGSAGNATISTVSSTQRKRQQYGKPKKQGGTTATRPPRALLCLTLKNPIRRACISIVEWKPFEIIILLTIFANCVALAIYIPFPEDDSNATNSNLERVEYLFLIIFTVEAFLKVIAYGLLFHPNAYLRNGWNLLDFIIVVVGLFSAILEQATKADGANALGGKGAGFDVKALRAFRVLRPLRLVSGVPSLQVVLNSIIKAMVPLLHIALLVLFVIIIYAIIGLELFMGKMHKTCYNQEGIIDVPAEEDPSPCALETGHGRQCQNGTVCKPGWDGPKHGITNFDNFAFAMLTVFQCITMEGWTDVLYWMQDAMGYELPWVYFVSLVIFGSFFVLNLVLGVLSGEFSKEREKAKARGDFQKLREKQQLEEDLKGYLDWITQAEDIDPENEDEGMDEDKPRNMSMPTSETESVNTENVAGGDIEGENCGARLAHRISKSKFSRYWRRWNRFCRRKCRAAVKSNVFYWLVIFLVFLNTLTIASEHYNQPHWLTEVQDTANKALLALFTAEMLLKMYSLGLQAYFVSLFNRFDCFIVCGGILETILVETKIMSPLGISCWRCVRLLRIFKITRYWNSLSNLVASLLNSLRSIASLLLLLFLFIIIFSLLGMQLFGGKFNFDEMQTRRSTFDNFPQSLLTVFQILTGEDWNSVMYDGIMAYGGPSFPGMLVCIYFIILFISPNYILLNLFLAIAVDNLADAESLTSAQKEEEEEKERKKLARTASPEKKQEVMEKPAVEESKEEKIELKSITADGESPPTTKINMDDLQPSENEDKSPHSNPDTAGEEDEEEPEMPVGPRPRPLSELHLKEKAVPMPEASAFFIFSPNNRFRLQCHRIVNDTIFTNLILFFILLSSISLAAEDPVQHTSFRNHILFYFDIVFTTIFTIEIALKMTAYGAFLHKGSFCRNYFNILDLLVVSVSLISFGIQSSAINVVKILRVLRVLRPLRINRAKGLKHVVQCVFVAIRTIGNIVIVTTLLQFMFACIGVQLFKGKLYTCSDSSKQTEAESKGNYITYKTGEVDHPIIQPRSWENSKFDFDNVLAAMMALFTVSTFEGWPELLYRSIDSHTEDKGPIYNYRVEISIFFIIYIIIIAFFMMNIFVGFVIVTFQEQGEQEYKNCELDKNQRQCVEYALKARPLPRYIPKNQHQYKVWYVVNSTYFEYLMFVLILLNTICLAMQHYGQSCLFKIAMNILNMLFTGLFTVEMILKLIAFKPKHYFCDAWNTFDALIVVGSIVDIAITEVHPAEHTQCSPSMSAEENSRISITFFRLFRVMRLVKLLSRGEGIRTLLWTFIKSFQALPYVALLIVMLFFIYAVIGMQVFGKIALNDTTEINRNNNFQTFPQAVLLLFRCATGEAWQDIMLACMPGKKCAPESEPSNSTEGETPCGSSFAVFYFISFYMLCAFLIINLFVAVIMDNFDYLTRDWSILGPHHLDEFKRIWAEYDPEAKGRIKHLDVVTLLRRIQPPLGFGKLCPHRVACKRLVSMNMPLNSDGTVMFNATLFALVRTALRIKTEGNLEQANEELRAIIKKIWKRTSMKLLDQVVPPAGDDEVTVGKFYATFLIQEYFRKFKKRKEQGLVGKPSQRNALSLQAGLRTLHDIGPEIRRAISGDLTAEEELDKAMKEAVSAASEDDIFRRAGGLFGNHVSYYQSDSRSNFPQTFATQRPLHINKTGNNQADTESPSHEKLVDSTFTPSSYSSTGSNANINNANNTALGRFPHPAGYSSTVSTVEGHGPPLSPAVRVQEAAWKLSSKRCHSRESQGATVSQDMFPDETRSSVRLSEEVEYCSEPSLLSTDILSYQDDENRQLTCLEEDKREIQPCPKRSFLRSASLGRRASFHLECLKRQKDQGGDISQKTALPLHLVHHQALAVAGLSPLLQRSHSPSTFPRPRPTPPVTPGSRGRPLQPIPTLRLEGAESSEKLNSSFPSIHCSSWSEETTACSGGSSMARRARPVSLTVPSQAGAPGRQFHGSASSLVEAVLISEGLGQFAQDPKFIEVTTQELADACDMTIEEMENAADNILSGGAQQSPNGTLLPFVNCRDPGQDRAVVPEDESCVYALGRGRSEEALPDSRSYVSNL
T1 sequence (P54290 25-944 partner limits assumed): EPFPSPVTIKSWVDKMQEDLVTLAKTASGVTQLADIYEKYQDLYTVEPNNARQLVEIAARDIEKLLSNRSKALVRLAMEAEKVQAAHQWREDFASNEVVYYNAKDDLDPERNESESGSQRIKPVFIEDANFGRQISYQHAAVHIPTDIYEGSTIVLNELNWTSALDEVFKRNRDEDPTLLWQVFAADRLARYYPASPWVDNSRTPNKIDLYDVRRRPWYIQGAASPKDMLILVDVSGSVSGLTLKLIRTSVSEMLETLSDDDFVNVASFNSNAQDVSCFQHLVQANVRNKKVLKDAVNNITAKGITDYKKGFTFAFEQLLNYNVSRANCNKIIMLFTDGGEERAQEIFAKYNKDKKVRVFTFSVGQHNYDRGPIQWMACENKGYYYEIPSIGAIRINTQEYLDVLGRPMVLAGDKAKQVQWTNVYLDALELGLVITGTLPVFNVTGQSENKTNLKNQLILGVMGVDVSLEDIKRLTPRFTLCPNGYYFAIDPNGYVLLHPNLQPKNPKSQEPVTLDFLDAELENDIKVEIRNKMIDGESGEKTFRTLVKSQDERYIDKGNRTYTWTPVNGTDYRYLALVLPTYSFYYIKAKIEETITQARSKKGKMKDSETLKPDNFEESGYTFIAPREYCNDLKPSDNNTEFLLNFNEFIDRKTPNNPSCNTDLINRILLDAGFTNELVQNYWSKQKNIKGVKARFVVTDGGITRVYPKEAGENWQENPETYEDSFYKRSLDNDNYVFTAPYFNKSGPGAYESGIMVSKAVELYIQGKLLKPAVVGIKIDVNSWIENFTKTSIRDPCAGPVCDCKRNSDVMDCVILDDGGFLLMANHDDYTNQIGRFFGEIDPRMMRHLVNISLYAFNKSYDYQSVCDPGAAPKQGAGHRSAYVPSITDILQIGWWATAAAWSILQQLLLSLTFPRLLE
T1 sequence (P54290 945-1091 partner limits assumed): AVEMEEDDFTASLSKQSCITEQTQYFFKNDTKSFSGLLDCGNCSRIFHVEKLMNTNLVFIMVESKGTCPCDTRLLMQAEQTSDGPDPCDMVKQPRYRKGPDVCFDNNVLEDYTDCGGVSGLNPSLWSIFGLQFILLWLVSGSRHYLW

For `[Ca+2]` [Ca^2+], the “effect of elevated dietary calcium intake on blood pressure” value (blood pressure [1]) is listed as “lowers blood pressure”, the “effect on early force response of the aorta to epinephrine” value (aorta) is listed as “suppress the early force response” and the “effect on later steady state response of the aorta” value (aorta) is listed as “enhanced”. For the same molecule, the effect on force ([2]; Ca2+ between 0.01 and 0.8 mmol/L) was “increase in force”, the “steady state force and Ca2+ in” value ([2]; Ca2+ from 0.8 to 1.6, FIG. 2) was “decreased steady state force but not steady state Ca^2+in” and the “effect on active stress” value ([2]; norepinephrine, serotonin and PGF2α contraction, not K+, 0.8 to 1.6 and 1.6 to 2.5 mmol/L) was “decreased active stress”. For the same molecule, the effect on force ([2]; raising Ca2+ from 0.8 to 1.6 or 1.6 to 2.5 mmol/L) was “caused relaxation; also recorded: decrease in force and Ca^2+”, the EC50 ([3]; cumulatively raising extracellular Ca2+ above 1.5 mM, n=12, read-out: ED50 value of Ca2+-induced relaxation) was 2400 ± 170 µM and the extent of relaxation ([3]; raising extracellular Ca2+ above 1.5 mM) was “nearly complete relaxation”. The “effect on isolated arteries” value ([3]; raising extracellular Ca2+ from 1.0 mM to 1.5 mM) was “relaxes isolated arteries”, the “effect on renal artery bioassay segment when superfused over the donor segment” value ([4]; 5 mM Ca2+) was “caused relaxation” and the “direct effect on bioassay (renal artery) vessel” value ([4]; 5 mM Ca2+ added directly) was “without effect; also recorded: absence of response”. For the same molecule, the “direct effect on renal artery vessel after recontraction” value ([4]; Ca2+ 1.5-5.0 mM) was “no effect”, the “relationship of 3 mM Ca2+-induced relaxation with CaR content” value ([5]; 5 μM norepinephrine) was “positively correlated” and the “relaxation response of precontracted artery to Ca2+” value ([5]; 1.5, 2, 3, 5, 7.5 and 10 mmol/L) was “biphasic relaxation response”. For the same molecule, the “effect on cremaster arterioles” value (cremaster arterioles) was “graded contraction”, the “steady state intracellular Ca2+” value [6] was “only decreased significantly in response to 2.5 mmol/L extracellular Ca^2+” and the “blood pressure lowering effect of Ca2+ supplementation” value (blood pressure [7]; clinical trials, overall) was “small overall blood pressure lowering effect”. For the same molecule, the “blood pressure response to Ca2+ supplementation in sub-groups” value (blood pressure [7]; sub-groups) was “significant fall in blood pressure”, the “response to low dose norepinephrine” value [8] was “significantly depressed” and the “effect of extracellular Ca2+ on K+-induced contraction” value (rat aorta) was “depressed”. The “effect on rat tail arteries” value (rat tail arteries; raising Ca2+ from 4.1 to 20.1 mmol/L) was “relaxes rat tail arteries” and the “effect on force generation” value (mammalian arteries) was “depress force generation”.
For `[Gd+3]` [Gd^3+], the “activation of CaR” value (CaR) is listed as “activated”.
For `[La+3]` [La^3+], the “activation of CaR” value (CaR) is listed as “activated”.
In the case of `COc1cccc([C@@H](C)NCCCc2ccccc2)c1` [NPS R467], the “effect of TEA on relaxation induced by low range of the drug” value ([9]; 10 mM TEA, 10's of nM drug) is reported as “completely antagonized”, the “effect of TEA on relaxation induced by higher concentration of the drug” value ([9]; TEA, higher concentration) is reported as “not blocked by TEA” and the “concentration causing a larger relaxation” value ([9]; biphasic relaxation, high range) is reported as 3 to 10 µM. For the same molecule, the “concentration inducing relaxation of similar extent to the Ca2+ relaxation” value ([9]; biphasic relaxation, low range) was 50 to 300 nM, the “concentration activating the perivascular Ca2+ receptor and inducing relaxation” value ([9]; interpretation consistent with data) was 30 to 300 nM and the “concentration of non-selective channel effects” value [10] was no less than 4 µM. For the same molecule, the “time for development of blood pressure lowering effect” value (mean arterial pressure; bolus, both strains) was 30 to 40 min and the “blood pressure lowering effect” value (mean arterial pressure; bolus, conscious rats, both strains) was “modest and slowly developing”.
For `COc1cccc([C@@H](C)NCCCc2ccccc2OC)c1` [NPS R831], the “shift of relaxation response during K+- vs norepinephrine-induced contraction” value (Ca^2+ channels; 100 mM K+ (1 μM phentolamine) vs 5 μM norepinephrine, NPS R831 10 nM to 50 μM) was “significantly shifted to the right (less sensitive)”, the “concentration of Ca2+ channel blocking mechanism of action” value (Ca^2+ channels; K+ vs norepinephrine contraction) was “mid-μM concentrations” and the IC50 (Ca^2+ channels; mesenteric arteries precontracted with 100 mM K+, read-out: IC50 for block of Ca2+ channels) was roughly 1.5 µM. For the same molecule, the “potency in relaxing precontracted arteries vs activating the parathyroid CaR” value ([9]; compared with parathyroid CaR system) was “relaxes precontracted arteries with the same potency as it activates the parathyroid CaR system”, the “concentration of possibly perivascular CaR mediated component” value ([9]; norepinephrine-induced contraction) was “sub-micromolar concentrations” and the “blood pressure lowering effect” value (mean arterial pressure; [12]) was “moderately rapid (within 5 min) blood pressure lowering effect in both strains”. The “onset of blood pressure lowering effect” value (mean arterial pressure; [12]) was no more than 5 min.
In the case of `C[C@@H]1O[C@@H](O[C@H]2C[C@@H](O)[C@]3(CO)[C@H]4[C@H](O)C[C@]5(C)[C@@H](C6=CC(=O)OC6)CC[C@]5(O)[C@@H]4CC[C@]3(O)C2)[C@H](O)[C@H](O)[C@H]1O` [ouabain], the “effect of pre-treatment on Ca2+-induced relaxation of rat tail arteries” value (rat tail arteries) is listed as “antagonized”.
For `NCCCNCCCCNCCCN` [spermine], the “activation of CaR” value (CaR) is given as “activated”.
For charybdotoxin, the “effect on decrease in active stress induced by 1.6 and 2.5 mmol/L extracellular Ca2+” value [2] was “inhibited” and the “effect on Ca2+-induced relaxation” value [11] was “antagonized”.
In the case of neomycin, the “activation of CaR” value (CaR) is listed as “activated”.
